Target: Protein arginine N-methyltransferase 5 (Homo sapiens, UniProt O14744)
Assay: Inhibition of human PRMT5 expressed in HEK293 cells coexpressing MEP50 incubated for 60 mins by chemiluminescent assay

Sequence of Protein arginine N-methyltransferase 5 (O14744 whole entry): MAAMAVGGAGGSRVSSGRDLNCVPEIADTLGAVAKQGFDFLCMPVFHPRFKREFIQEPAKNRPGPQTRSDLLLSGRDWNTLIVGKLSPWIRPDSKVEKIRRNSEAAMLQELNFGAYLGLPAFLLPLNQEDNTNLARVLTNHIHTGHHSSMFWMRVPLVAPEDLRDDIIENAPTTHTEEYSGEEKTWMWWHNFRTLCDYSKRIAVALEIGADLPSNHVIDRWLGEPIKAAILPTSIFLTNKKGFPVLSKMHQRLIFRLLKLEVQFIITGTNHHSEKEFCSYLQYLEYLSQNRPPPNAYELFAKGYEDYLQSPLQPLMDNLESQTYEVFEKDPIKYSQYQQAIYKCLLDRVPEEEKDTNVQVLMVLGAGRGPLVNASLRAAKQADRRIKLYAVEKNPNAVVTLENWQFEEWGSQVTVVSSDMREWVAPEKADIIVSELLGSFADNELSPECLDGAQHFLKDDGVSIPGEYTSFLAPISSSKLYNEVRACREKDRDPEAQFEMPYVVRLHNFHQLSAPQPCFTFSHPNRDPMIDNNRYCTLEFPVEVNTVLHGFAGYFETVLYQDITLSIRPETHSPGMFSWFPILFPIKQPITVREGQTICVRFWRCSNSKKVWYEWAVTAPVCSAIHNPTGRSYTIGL

CC(=O)N1CCC(Nc2cc(C(=O)NC[C@H](O)CN3CCc4c([nH]c5ccccc45)C3)ncn2)CC1 [(S)-6-((1-acetylpiperidin-4-yl)amino)-N-(2-hydroxy-3-(1,3,4,9-tetrahydro-2H-pyrido [3,4-b]indol-2-yl)propyl)pyrimidine-4-carboxamide] gave an IC50 of 10 nM.
